Measurements as given in patent publication US11969470B2, “Topiramate compositions and methods of making and using the same” (Regents of the University of Minnesota, priority 2006, dated 2024).

Assays:
AMPA-kainate receptor = details: developing oligodendrocytes; similar to NBQX; cited from earlier work
[1] = Open labeled single dose intravenous [13C]6-TPM/CAPTISOL study in adult patients on maintenance oral topiramate (pharmacokinetics and safety); type: in vivo, human; details: for BP changes / EKG changes / Injection site irritation / Other adverse events / Pulse changes / Bioavailability (fraction of oral dose absorbed, AUCoral vs AUCiso) / Clearance / Distribution volume / Half life: IV dose 25 mg
Protocol: This was an open labeled, single dose study in adult patients on a maintenance dose of topiramate for treatment of either migraines or epilepsy.
Patients were instructed to take their evening topiramate dose the day before the study, then fast until after administration of study drug. On the day of the study, subjects were admitted to University of Minnesota General Clinical Research Center where a neurologist performed a brief physical and neurological exam, vital signs were recorded, an ECG strip was obtained, indwelling catheters were placed in the left and right forearms, and blood samples were drawn for baseline laboratory tests.
A baseline assessment of topiramate toxicity was performed using the following criteria: ataxia and nystagmus: 0=none, 1=mild, 2=severe. As used herein, “ataxia” is classified as “mild”—for unsteady with tandem gait testing, but able to perform without assistance, or as “severe”—unable to perform tandem gait testing without assistance
The [^13C]6-TPM was administered into the right arm catheter, while blood samples for laboratory tests were drawn from the left arm. Laboratory chemistries included albumin, blood chemistries, kidney and liver function test, and genotyping for drug disposition. A 25 mg [^13C]6-TPM dose was then infused over 10-20 minutes. The exact dose administered was determined gravimetrically from the pre- and post-dose syringe weights. At the end of the infusion, patients took their prescribed oral morning dose; thereafter they resumed their regular dosing regimen. Blood samples for pharmacokinetic analysis were taken at 0, 5 minutes, 15 minutes, 30 minutes, 1 hour, 2 hours, 4 hours, 6 hours, 10 hours, 24 hours, 48 hours, 72 hours and 96 hours after intravenous administration of the topiramate. Urine was collected from 0-24 hours for analysis of the parent drug to determine renal clearance. Urine volumes were measured and 15 mL aliquots were stored at −80° C. until analysis.
Topiramate was detected using a LC/MS method employing the electrospray ionization (ESI) and negative scan mode. This method is designed to measure both unlabeled topiramate and the stable-isotope topiramate using a negative ESI and SIM mode of liquid chromatograph mass spectrometer. The analytes were separated using ZORBAX® LC8/LC18 and a mobile phase consisting of ammonium acetate buffer and methanol. The data generated using CHEMSTATION® software (Agilent) and quantified using deuterated topiramate (“TPM-d12”, internal standard). Patient samples were run along with a 7-concentration standard curve (run in triplicate) and nine quality control samples (low, med and high also run in triplicates), analyzed in human plasma using liquid extraction with methyl-tert-butylether and negative ion electrospray mass spectrometry. The quantitative analysis was performed using selective ion monitoring mode for topiramate at m/z=338 and m/z=350 for TPM-d12 in the negative mode. The unlabeled topiramate calibration curve ranged from 0.05 μg/mL to 10 μg/mL.
Both stable-isotope topiramate and non-labeled topiramate concentration-time data was analyzed by non-compartmental methods to obtain AUC, clearance, half-life, and volume of distribution data. The AUC was determined by the trapezoidal rule and the terminal half-life was determined by linear regression of the terminal phase on log concentration vs. time plots. WINNONLIN® (Tripos L.L.P.), a pharmacokinetic data analysis package was used to fit the data to standard pharmacokinetic models (one and two-compartment models).
Elimination rate constant (kel): kel was determined by the best fit of the post-infusion isotope concentration-time data.
AUCiso=AUC0-96 hrs+Cp96 hrs/kel
Distribution Volume at Steady State (Vdss): Vdss was determined as follows: Vdss=Doseiso*AUMC/AUC where AUMC is the area under the first moment curve, and calculated by determining the area under the curve of a plot of the product of concentration and time versus time from zero time to infinity. […]

[2] = cited from earlier work
[3] = system: hypoxic-ischemic white matter injury; details: administration post-insult in vivo; cited from earlier work
[4] = Topiramate phase solubility study with the cyclodextrin CAPTISOL
Protocol: A phase solubility study was conducted with the cyclodextrin CAPTISOL® and topiramate to evaluate the extent of solubilization of the drug by the derivatized cyclodextrin.
Solutions containing increasing amounts of dissolved CAPTISOL® brand of sulfobutylether-β-cyclodextrin were prepared and added to small glass vials. Excess solid topiramate was added to each vial and the vials were capped, vortexed and placed in constant agitation for five days at room temperature (about 23° C. to about 25° C.).
After the multi-day equilibration period, the vials were centrifuged (twice at 693×g, 25° C.) and aliquots were taken from the clear supernatant solutions. The aliquots were diluted 1:3 (1:5.67 for 40% cyclodextrin CAPTISOL® solutions) with mobile phase and analyzed by HPLC for topiramate content.
• HPLC: Dionex • Detection: Refractive Index Detector • Column: SB-Phenyl (5 μm) 250 mm×4.6 mm • Column Temperature: 35° C. • Mobile Phase: 40:60 (MeOH:Water) • Flow Rate: 1.0 mL/min isocratic • Run Time: 30 minutes • Sample Solvent: Mobile phase • Injection Volume: 50 μL • Retention Time: ˜12.5 minutes Mobile Phase Preparation

[5] = administered parenterally, orally and via inhalation; compared with β-cyclodextrin; cited from earlier work
[6] = cited from earlier work; remark: listed apart in the source
[7] = adult patients, summary of three subjects
[8] = subject TUMN1, oral dose 50 mg b.i.d.
[9] = subject TUMN2, oral dose 100 mg q.d.
[10] = subject TUMN3, oral dose 25 mg b.i.d.

For `CC1(C)O[C@@H]2[C@@H](CO[C@@]3(COS(N)(=O)=O)OC(C)(C)O[C@@H]23)O1` [Topiramate, 2,3:4,5-di-O-isopropylidene-β-D-fructopyranose sulfamate], the “effect on AMPA-kainate receptor-mediated cell death and calcium influx, kainate-evoked currents” value (AMPA-kainate receptor) is listed as “attenuates”, the “distribution volume for intravenously administered topiramate” value [1, 7] is listed as “approximately 0.7 L/kg” and the oral absorption [1, 7] is listed as “approximately 100%”. For the same compound, the BP changes ([1]; subject TUMN1) was “None”, the EKG changes ([1]; subject TUMN1) was “None” and the Injection site irritation ([1]; subject TUMN1) was “None”. The Other adverse events ([1]; subject TUMN1) was “None”, the Pulse changes ([1]; subject TUMN1) was “None” and the “Bioavailability (fraction of oral dose absorbed, AUCoral vs AUCiso)” value [1, 8] was 102%. For the same compound, the Clearance [1, 8] was 1.01 L/h, the Distribution volume [1, 8] was 0.78 L/kg and the Half life [1, 8] was 30.5 h. For the same compound, the BP changes ([1]; subject TUMN2) was “None”, the EKG changes ([1]; subject TUMN2) was “None” and the Injection site irritation ([1]; subject TUMN2) was “None”. The Other adverse events ([1]; subject TUMN2) was “None”, the Pulse changes ([1]; subject TUMN2) was “None” and the “Bioavailability (fraction of oral dose absorbed, AUCoral vs AUCiso)” value [1, 9] was 106%. It also gave a Clearance [1, 9] of 1.07 L/h, a Distribution volume [1, 9] of 0.68 L/kg and a Half life [1, 9] of 28.4 h. The BP changes ([1]; subject TUMN3) was “None”, the EKG changes ([1]; subject TUMN3) was “None” and the Injection site irritation ([1]; subject TUMN3) was “None”. The Pulse changes ([1]; subject TUMN3) was “None”, the Other adverse events ([1]; subject TUMN3, cell wraps: Vasovagal response during IV line placement) was “Vasovagal” and the “Bioavailability (fraction of oral dose absorbed, AUCoral vs AUCiso)” value [1, 10] was 109%. It also gave a Clearance [1, 10] of 1.11 L/h, a Distribution volume [1, 10] of 0.70 L/kg and a Half life [1, 10] of 38.0 h. For the same compound, the “bioavailability of an oral topiramate dose” value ([2]; oral administration, previously found) was “about 80%”, the “oral dose excreted in the urine as unchanged drug” value ([2]; oral administration) was “about 70%” and the “higher clearance in pediatric patients compared to adults” value ([2]; pediatric patients vs adults) was 50%. For the same compound, the “effect on selective hypoxic-ischemic white matter injury” value [3] was “protective against selective hypoxic-ischemic white matter injury”, the intrinsic solubility ([4]; in water in the absence of cyclodextrin, room temperature) was 7860 µg/mL and the phase solubility type ([4]; topiramate in CAPTISOL solutions in water) was “Type A-linear”.
In the case of “sulfobutylether-β-cyclodextrin [CAPTISOL®]”, the nephrotoxicity [5] is given as “does not exhibit the nephrotoxicity associated with β-cyclodextrin” and the water solubility [6] is given as over 90 g per 100 mL.
